Assay: Metabolic stability in human liver microsomes assessed as parent compound remaining after 240 mins incubation by LC-MS/MS analysis
Type: ADME, Microsome
Settings: read-out: Stability

| SMILES | remaining at 4 h [%] |
| --- | --- |
| CS(=O)(=O)N1CCCC(NC(=O)[C@H](CCC2CCCCC2)NC(=O)c2ccc(CNC(=O)c3cnc4ccccn34)cc2)C1 (mixture of isomers) [SR-302] | 44 |
| CS(=O)(=O)N1CCC[C@H](NC(=O)[C@H](CCC2CCCCC2)NC(=O)c2ccc(CNC(=O)c3cnn(-c4ccccc4)c3N)cc2)C1 | 44 |

— ChEMBL document CHEMBL5053509, “Development of a Selective Dual Discoidin Domain Receptor (DDR)/p38 Kinase Chemical Probe” (J Med Chem, 2021)
